Data as given in patent publication US6500936B2, “Pluraflavins and derivatives thereof, process for their preparation and use thereof” (priority 2000, dated 2002).
Values joined by “and” are separate entries in the source; they are usually repeats but may differ in a detail not shown here. Equal entries are not always repeated. Where two headings read alike, the source gives them in different places.

Key:
Colon tumor cell line = assay: MTT antiproliferation assay, colon tumor cells; type: cell-based
Text: (§1) MTT, a water soluble tetrazolium salt, is converted to an insoluble purple formazan when dissolved by cleavage of the tetrazolium ring by dehydrogenase enzymes in active mitochondria. […] This method was used to quantitate proliferation in order to determine activity of potential chemotherapeutic compounds.
(§2) All cells were maintained in RPMI 1640 (Life Technologies, Gaithersburg, Mdi) containing 10% heat-inactivated Fetal Bovine Serum, penicillin /streptomycin and supplemented with L-glutamine.
(§3) Cells were plated in 96-well tissue culture plates at the following densities:
(§4) Cells were allowed to adhere overnight at 37° C., 5% CO2.
(§5) The cells were washed with fresh media and the compounds added to the cells in a final volume of 100 μl. The cells plus compound were allowed to incubate at 37° C., 5% CO2 for approximately 72 hours.
(§6) At the desired time point, 25 μl of MTT (10 mg/ml in HBSS) were added to each well. Plates were incubated at 37° C. for 2-4 hours. MTT and media were removed and 200 μl DMSO were added per well. Readings were taken at 570 nm.

Breast tumor cell line = assay: MTT antiproliferation assay, breast tumor cells; type: cell-based
Text: as §1, §2, §3, §4, §5, §6

Lung tumor cell line = assay: MTT antiproliferation assay, lung tumor cells; type: cell-based
Text: as §1, §2, §3, §4, §5, §6

Prostate tumor cell line = assay: MTT antiproliferation assay, prostate tumor cells; type: cell-based
Text: as §1, §2, §3, §4, §5, §6

leukemia cells = assay: Soft agar assay against leukemia cells; type: cell-based
[1] = Chemical stability by medium / pH
[2] = test system: rat hepatoma cells ATCC CRL-1548; assay: Cytostatic activity on rat hepatoma cells (Cell Titer 96 Aqueous); type: cell-based; settings: read-out: IC50 (cytostatic effect)
Method: (a) To determine the cytostatic activity, rat hepatoma cells were used which were obtained from the strain collection American Type Culture Collection under the number ATCC CRL-1548, Jo No.223 and 228 The strain was kept in the “MEM (EAGLE) with Glutamax” medium [GIBCO BRL No.4109-028] with 10% fetal calf serum [GIBCO BRL No. 10270-106] and 10 μl of penicillin-streptomycin [GIBCO BRL No. 15140-114]/ml. 96-well microtiterplates [Greiner, No. 15140-114] were used. Each well was initially charged with 140 μl of culturing nutrient solution and in each case inoculated with 215,000 cells. The plates were then incubated at 37° C. and 5% CO2 for 20-24 hours. A dilution series of pluraflavins with concentrations of 100, 50, 25, 12.5, 6.25, 3.125, 1.5625, 0.7813, 0.3906, 0.195, 0.094, 0.047 and 0 μM, which had been prepared beforehand, was then pipetted in the corresponding order. After a further incubation time of 22 hours at 37° C. in an atmosphere of 5% CO2, the liquid medium was then aspirated. The cells that remained were stained with 100 μl of RPMI 1640 [GIBCO BRL No. 32404-014]/well and 20 μl of Cell Titer 96 Aqueous [PROMEGA No. G5430]/well. Light absorption at 590 nm was measured directly after addition and after 2 hours of incubation, as above. The cytostatic effect was calculated from the change in light absorption.

[3] = Solubility (appearance description)

## CN1CC[C@H](c2c(O)cc(O)c3c(=O)cc(-c4ccccc4Cl)oc23)[C@H](O)C1 [flavopiridol, reference compound]
Colon tumor cell line; Colon cells, MTT, approximately 72 hours, read-out: IC50
  IC50: 30 nM
Breast tumor cell line; Breast cells, MTT, approximately 72 hours, read-out: IC50
  IC50: 90 nM
Lung tumor cell line; Lung cells, MTT, approximately 72 hours, read-out: IC50
  IC50: 90 nM
Prostate tumor cell line; Prostate cells, MTT, approximately 72 hours, read-out: IC50
  IC50: 80 nM
Leukemia cells; soft agar assay, leukemia cells, read-out: IC50
  IC50: 500 nM and 600 nM

## CC1OC(OC2C(C)OC(c3ccc4c(c3O)C(=O)c3c(cc(COC5CC(C)(N)C(O)C(C)O5)c5c(=O)cc(C6(C)OC6C)oc35)C4=O)CC2N(C)C)CC(O)C1O (stereo not drawn) [pluraflavin A]
Colon tumor cell line; 72 h
  IC50: 0.35 nM
Breast tumor cell line; 72 h
  IC50: < 23 nM
Lung tumor cell line; 72 h
  IC50: 3 nM
Prostate tumor cell line; 72 h
  IC50: 10 nM
[1]
  stability in the alkaline range: unstable
  stability in neutral and mildly acidic medium: stable
  stability in the strongly acidic range: unstable
[2]; Rattus norvegicus, 22 h
  IC50: < 50 nM
Leukemia cells
  IC50: 60 nM

## CC1OC(OC2C(C)OC(c3ccc4c(c3O)C(=O)c3c(cc(COC5CC(C)(N)C(O)C(C)O5)c5c(=O)cc(C(C)(O)C(C)O)oc35)C4=O)CC2N(C)C)CC(O)C1O (stereo not drawn) [pluraflavin B]
[1]
  stability in the alkaline range: unstable
  stability in neutral and mildly acidic medium: stable
[3]
  solubility in polar organic solvents: soluble
  solubility in water: only sparingly soluble
[2]; rat hepatoma cells, 22 hours incubation
  IC50: < 50 nM

## CC1OC(OC2C(C)OC(c3ccc4c(c3O)C(=O)c3c(cc(C(=O)O)c5c(=O)cc(C(C)(O)C(C)O)oc35)C4=O)CC2N(C)C)CC(O)C1O (stereo not drawn) [pluraflavin E]
[1]
  stability in the alkaline range: unstable
  stability in neutral and mildly acidic medium: stable
  stability in the strongly acidic range: unstable
[3]
  solubility in polar organic solvents: soluble
  solubility in water: only sparingly soluble
